From patent US20200392116A1, “SUBSTITUTED HETEROCYCLES AS c-MYC TARGETING AGENTS” (NORTHWESTERN UNIVERSITY, priority 2019, published 2020)
Where two headings read alike, the source gives them in different places. Each block holds one molecule with its values, some of them ahead of it.

Key:
MV411 cells xenograft = test: AML xenograft model, combination with Ara-C; type: in vivo, CB17 SCID mice; settings: AML mice xenograft
Procedure: CB17 SCID mice were inoculated with MV411 cells at the density of 5×10^6 suspended in PBS and matrigel (1:1). The mice were randomized based on tumor volume into 6 different groups after the tumor reached ˜200 to 500 mm^3. The mice were treated either with vehicle, NU031, NU975 alone or in combination with cytarabine (Ara-C). […] (See FIG. 17).

[1] = Potency code of Table 2 (assay not stated)
[2] = In vitro metabolism with mouse liver microsomes; type: in vitro ADME; settings: % remaining of compound after 60 min treatment with mouse liver microsomes
Procedure: (§1) In vitro metabolism of NUCC-176242 and NUCC-176248 were tested using mouse liver microsomes and a mouse S9 fraction. (See FIG. 9).

[3] = Plasma protein binding (mouse); type: in vitro ADME
[4] = tested on: MYC WT and MYC KO rat fibroblasts; test: Growth inhibition of wild type and MYC knockout rat fibroblasts; type: cell-based
Description: We tested the top 13 active compounds in the first screen assay. […] More than half of the tested compounds show better growth inhibitory effect on MYC WT compared to MYC KO cells.

MycCap cells = test: Cell viability of MycCap cells; type: cell-based
PC12 cells = test: Cell viability / proliferation of PC12 cells (MTS); type: cell-based
Procedure: PC3 prostate cancer cell line with high Myc level and PC12 pheochromocytoma tumor cell line with non functional Max protein, which is not dependent on Myc-Max complex, were phased from ATCC. Cells were plated in 96 well plate at 1000 cells per well, and Myc inhibitor 361 at various concentrations was added to the cells next day. After 3 days of treatment, fresh medium with 361 were added again, and cell viability was measured by MTS assay at day 5 after the treatment. (See FIG. 11).

MYC/Max binding to DNA = MYC/Max binding to DNA (Homo sapiens, UniProt P01106); test: Electrophoretic mobility shift assay (EMSA) of MYC/Max binding to DNA
Procedure: We also tested our best hit compound Min9 (NUCC-0176234) and newly synthesized analogs for effects of these compounds on MYC/Max binding to DNA in electrophoretic mobility shift assays (EMSAs). (See FIG. 5a and FIG. 5b). We expected the active compounds to impair MYC/Max binding to DNA. Several structural analogs of Min9 were tested over multiple doses for inhibiting MYC-DNA binding and we observed a dose-dependent inhibition. (See FIG. 5c).

[5] = Pharmacokinetics in mice after IV dosing; type: in vivo; settings: 5 mg/kg intravenously
Procedure: The pharmacokinetics of NUCC-176242 and NUCC-176248 were studied in mice by administering a dose of 5 mg/kg intravenously and measuring the plasma concentration versus time. (See FIG. 10).
The pharmacokinetics of NUCC-176242 and NUCC-176248 were studied in mice by administering a dose of 5 mg/kg intravenously and measuring the plasma concentration versus time.

[6] = tested on: MYC transcriptional activity (c-Myc E-box-luciferase reporter, MycCap cells); test: MYC E-box luciferase reporter assay; type: cell-based; settings: Mus musculus, Myc-CaP
Procedure: To test the compounds, we evaluated the in silico hits in a MYC E-Box luciferase reporter assay to measure the effects of these compounds (referred to as Min-1 to Min-32) on MYC transcriptional activity. […] (See FIG. 2).
MycCap cells stably expressing luciferase with CMV promoter (MycCap-luc) or c-Myc E-box-luciferase reporter (MycCap Ebox-luc) were plated at 10000 cells per well in 96 well white-wall plate. Serial dilutions of 361 were treated next day. At 4 hours of treatment, luminescence signal was determined immediately after adding 150 μg/ml of Luciferin to the well. (See FIG. 12).

CMV reporter = CMV reporter assay (control reporter beside the Ebox reporter); type: cell-based
[7] = tested on: cMYC wild-type (WT) and cMYC KO line; test: Cell viability assay, cMYC wild-type line versus cMYC KO line; type: cell-based
Procedure: Min9 (NUCC-0176234) was also tested in a cell viability assay against a cMYC wild-type (WT) and a cMYC KO line.

DNA damage (rH2AX) = test: rH2AX staining assay for DNA damage; type: cell-based
Procedure: Min9 (NUCC-0176234) was also tested for its ability to cause DNA damage in an rH2AX staining assay. We would not expect cMYC-targeting agents to produce significant DNA damage. Compounds that act directly against DNA such as doxorubicin do however. […] (See FIG. 6).

[8] = In vitro metabolism with mouse S9 fraction; type: in vitro ADME
Procedure: as §1
In vitro metabolism of NUCC-176242 and NUCC-176248 were tested using mouse liver microsomes and a mouse S9 fraction.

[9] = class symbols, read-out: Ebox reporter: IC50
[10] = class symbols, read-out: Eboc reporter IC50

MYC/Max binding to DNA, sequence (P01106 whole entry): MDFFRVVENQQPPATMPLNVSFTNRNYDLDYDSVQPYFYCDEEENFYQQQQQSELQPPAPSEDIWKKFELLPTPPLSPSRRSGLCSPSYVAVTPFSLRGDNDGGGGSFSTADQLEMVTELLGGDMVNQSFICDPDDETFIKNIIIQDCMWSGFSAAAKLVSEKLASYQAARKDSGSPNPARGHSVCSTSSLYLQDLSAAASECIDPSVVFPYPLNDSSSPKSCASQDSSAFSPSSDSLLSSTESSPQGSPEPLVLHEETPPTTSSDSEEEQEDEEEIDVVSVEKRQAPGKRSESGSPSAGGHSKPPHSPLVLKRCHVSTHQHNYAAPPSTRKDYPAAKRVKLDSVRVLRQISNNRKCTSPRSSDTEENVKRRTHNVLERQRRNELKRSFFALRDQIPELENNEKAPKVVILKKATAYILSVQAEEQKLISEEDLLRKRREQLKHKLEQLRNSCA

SMILES: CCCCOc1ccc(-c2cc(C(F)(F)F)n[nH]2)c(O)c1-c1cc(C(F)(F)F)cc(C(F)(F)F)c1 [NU031]
anti-tumor effect in combination with Ara-C (MV411 cells xenograft): significant difference compared to control group

MLM % at 60 min [2]: 72.9%
fraction unbound [3]: < 0.001
SMILES: Cn1nc(C(F)(F)F)cc1-c1ccc(OCc2ccc(Cl)cc2)c(-c2cc(C(F)(F)F)cc(C(F)(F)F)c2)c1O [NUCC-0196361]
Potency code [1]: ++++ (<10 ++++)

SMILES: CCc1ccc(Oc2c(-c3ccc(OCc4ccncc4)cc3O)n[nH]c2C(F)(F)F)cc1 [NUCC-0176250]
Potency code [1]: + (>40 +)
selectivity of growth inhibition, MYC WT versus MYC KO [4]: great selectivity

SMILES: O=C1CCC(N2C(=O)c3cccc(OCc4cn(CCOCCOCCOCC(=O)Nc5ccc(COc6ccc(-c7cc(C(F)(F)F)n[nH]7)c(O)c6-c6cc(C(F)(F)F)cc(C(F)(F)F)c6)cc5)nn4)c3C2=O)C(=O)N1 (stereo not drawn) [NUCC-0201202]
Potency code [1]: +++ (10-30 +++)
IC50 (MycCap cells): 4 µM
IC50 (PC12 cells): 23.1 µM

MLM % at 60 min [2]: 21.8%
fraction unbound [3]: < 0.001
SMILES: Cn1nc(C(F)(F)F)cc1-c1ccc(OCc2ccc(Cl)cc2)cc1C=O [NUCC-0200976]
Potency code [1]: + (>40 +)

IC50 (MYC/Max binding to DNA): 66.8 µM
SMILES: CCc1ccc(Oc2c(-c3ccc(OCc4cccc(Cl)c4)cc3O)n[nH]c2C(F)(F)F)cc1 [NUCC-0196295]
Potency code [1]: +++ (10-30 +++)

SMILES: CCc1ccc(Oc2c(-c3ccc(OCc4ccc(Cl)cc4)cc3O)nn(C)c2C(F)(F)F)cc1 [NUCC-0176248]
Potency code [1]: + (>40 +)
in vivo metabolism (plasma concentration versus time) [5]: correlated well with the observed in vitro metabolism
selectivity of growth inhibition, MYC WT versus MYC KO [4]: high specificity

MLM % at 60 min [2]: 75.8%
SMILES: Oc1c(-c2cc(C(F)(F)F)[nH]n2)ccc(Oc2ccc(Cl)cc2)c1-c1cc(C(F)(F)F)cc(C(F)(F)F)c1 [NUCC-0201223]
Potency code [1]: ++++ (<10 ++++)

SMILES: Cn1nc(C(F)(F)F)cc1-c1ccc(OCc2ccc(Cl)cc2)c(-c2ccc(Cl)c(C(F)(F)F)c2)c1O [NU975]
anti-tumor effect in combination with Ara-C (MV411 cells xenograft): significant difference compared to control group

MLM % at 60 min [2]: 10.3%
SMILES: CCCCOc1ccc(-c2cc(C(F)(F)F)n(C)n2)c(O)c1-c1cncc(C(F)(F)F)c1 [NUCC-0201209]
Potency code [1]: + (>40 +)

MLM % at 60 min [2]: 52.7%
SMILES: CCCCCCOc1ccc(-c2cc(C(F)(F)F)nn2C)c(O)c1-c1cncc(C#N)c1 [NUCC-0201207]
Potency code [1]: +++ (10-30 +++)

MLM % at 60 min [2]: 87.4%
SMILES: Oc1cc(OCc2ccc(Cl)cc2)ccc1-c1n[nH]c(C(F)(F)F)c1Oc1ccccc1Cl [NUCC-0196342]
Potency code [1]: ++++ (<10 ++++)

MLM % at 60 min [2]: 66.6%
SMILES: CCCCCCOc1ccc(-c2cc(C(F)(F)F)n[nH]2)c(O)c1-c1cc(C(F)(F)F)cc(C(F)(F)F)c1 [NUCC-0201196]
Potency code [1]: +++ (10-30 +++)

MLM % at 60 min [2]: 80.3%
SMILES: Cn1nc(C(F)(F)F)cc1-c1ccc(OCc2ccc(Cl)cc2)c(-c2cccc(C#N)c2)c1O [NUCC-0198399]
Potency code [1]: ++++ (<10 ++++)

MLM % at 60 min [2]: 30.5%
fraction unbound [3]: < 0.001
SMILES: Oc1c(-c2cc(C(F)(F)F)n[nH]2)ccc(OCCN2CCCC2)c1-c1cc(C(F)(F)F)cc(C(F)(F)F)c1 [NUCC-0201032]
Potency code [1]: + (>40 +)

MLM % at 60 min [2]: 60.3%
fraction unbound [3]: < 0.001
SMILES: CCOC(=O)c1cc(-c2ccc(OCc3ccc(Cl)cc3)c(-c3cc(C(F)(F)F)cc(C(F)(F)F)c3)c2O)n[nH]1 [NUCC-0200972]
Potency code [1]: + (>40 +)

SMILES: O=C1CCC(N2C(=O)c3cccc(OCc4cn(CCOCCOCCOCCOCC(=O)Nc5ccc(COc6ccc(-c7cc(C(F)(F)F)n[nH]7)c(O)c6-c6cc(C(F)(F)F)cc(C(F)(F)F)c6)cc5)nn4)c3C2=O)C(=O)N1 (stereo not drawn) [NUCC-0201203]
Potency code [1]: ++ (30-40 ++)
IC50 (MycCap cells): 32.4 µM

MLM % at 60 min [2]: 46.4%
SMILES: CCc1c(OCc2ccc(Cl)cc2)ccc(-c2cc(C(F)(F)F)n[nH]2)c1O [NUCC-0200739]
Potency code [1]: + (>40 +)

SMILES: CC(C)CCOc1ccc(-c2cc(C(F)(F)F)n[nH]2)c(O)c1-c1cc(C(F)(F)F)cc(C(F)(F)F)c1 [NUCC-0201198]
Potency code [1]: +++ (10-30 +++)
IC50 (MycCap cells; Mus musculus, Myc-CaP): 2.6 µM
IC50 (PC12 cells; Rattus norvegicus, PC-12): 8.2 µM

SMILES: Cn1nc(C(F)(F)F)cc1-c1ccc(OCc2ccc(Cl)cc2)c(-c2ccc(Cl)c(C(F)(F)F)c2)c1O [compound 975]
anti-tumor effect in combination with Ara-C (MV411 cells xenograft): significant synergic anti-tumor effect

SMILES: C=C(C)c1cc(-c2ccc(OCc3ccc(Cl)cc3)c(-c3ccc(C)c(C)c3)c2C)nn1C [NUCC-0202528]
IC50 [6, 9]: 10 to 50 µM
IC50 (CMV reporter): 28 µM

SMILES: Cn1nc(O)cc1-c1ccc(OCc2ccc(Cl)cc2)c(-c2ccc(Cl)c(C(F)(F)F)c2)c1O [NUCC-0202638]
IC50 [6, 9]: 10 to 50 µM
IC50 (CMV reporter): > 50 µM

SMILES: Cn1nc(C(F)(F)F)cc1-c1ccc(OC2CCOCC2)c(-c2ccc(Cl)c(C(F)(F)F)c2)c1O [NUCC-0202427]
IC50 [6, 9]: 10 to 50 µM
IC50 (CMV reporter): > 50 µM

MLM % at 60 min [2]: 74%
SMILES: COc1cccc(-c2c(-c3ccc(OCc4ccc(Cl)cc4)cc3O)n[nH]c2C(F)(F)F)c1 [NUCC-0198309]
Potency code [1]: ++++ (<10 ++++)

MLM % at 60 min [2]: 88.6%
SMILES: Oc1c(-c2cc(C(F)(F)F)[nH]n2)ccc(OCc2ccc(Cl)cc2)c1-c1ccccc1Cl [NUCC-0196363]
Potency code [1]: ++++ (<10 ++++)

SMILES: Cn1nc(-c2ccc(NC(=O)c3ccc(Cl)c(C(F)(F)F)c3)cc2O)cc1C(F)(F)F [NUCC-0202691]
IC50 ([6]; given as numeric bound, read-out: Ebox reporter: IC50): > 50 µM
IC50 (CMV reporter): > 50 µM

SMILES: Cn1nc(C(F)(F)F)cc1-c1ccc(CNc2ccc(Cl)c(C(F)(F)F)c2)cc1O [NUCC-0202980]
IC50 [6, 10]: 10 to 50 µM
IC50 (CMV reporter; class symbols): 10 to 50 µM

SMILES: Cn1nc(-c2ccc(CNc3ccc(Cl)c(C(F)(F)F)c3)cc2O)cc1C(F)(F)F [NUCC-0202981]
IC50 [6, 10]: 10 to 50 µM
IC50 (CMV reporter; class symbols): > 50 µM

inhibition of MYC/Max (c-MYC) binding to DNA (MYC/Max binding to DNA; in words): prevent c-MYC/DNA binding
SMILES: CCc1ccc(Oc2c[nH]nc2-c2ccc(OCc3cnn(-c4ccccc4)c3)cc2O)cc1 [NUCC-0176234]
Potency code [1]: + (>40 +)
cell viability, WT line versus KO cells [7]: reduces cell viability much more in the WT line than the KO cells
DNA damage (DNA damage (rH2AX)): essentially no DNA damage

SMILES: CCc1ccc(Oc2c(-c3ccc(OCc4ccc(Cl)cc4)cc3O)n[nH]c2C(F)(F)F)cc1 [NUCC-0176242]
Potency code [1]: ++ (30-40 ++)
metabolism by mouse S9 fraction [8]: significantly metabolism by the mouse S9 fraction versus NUCC-176248
in vivo metabolism (plasma concentration versus time) [5]: correlated well with the observed in vitro metabolism

SMILES: CN(C(=O)c1ccc(-c2cc(C(F)(F)F)nn2C)c(O)c1)c1ccc(Cl)c(C(F)(F)F)c1 [NUCC-0202990]
IC50 [6, 10]: 10 to 50 µM
IC50 (CMV reporter; class symbols): > 50 µM
